Laboratory results reported in patent US20070110751A1, “Compositions and methods for reducing infarct size” (priority 2005, published 2007).
Where two headings read alike, the source gives them in different places.

Legend:
C57/BL6 mice = assay type: in vivo, mouse
Protocol: Complexes were immunoprecipitated from 300 μg of total protein lysates from each of the indicated treatment groups. ^32P-labeling of histones H1 was measured using a standard Cdk2 kinase assay. […] IFS in DETA/NO-treated mice compared to control Vehicle-treated mice are shown (*P<0.05; n=4 per group).
IFS in Roscovitine-treated mice compared to control vehicle-treated mice are shown (*P<0.001; n=6 per group). […] Ventricular lysates were probed for the indicated proteins. Mean IFS sizes after 24 hours of reperfusion are shown. (*P<0.05 for Cdk2^+/+ versus Cdk2^−/− IFS; n=5 per group).
Male mice were subjected to myocardial ischemia/reperfusion as previously described (Wang, G., et al. 2005. Am. J. Physiol. Heart Circ. Physiol 288:H1290-H1295). Pentobarbital-anesthetized (50 mg/kg body wt i.p.) mice were intubated for positive pressure ventilation with oxygen-enriched room air during the surgical procedure. After left thoracotomy between ribs three and four, the pericardium was opened and a silk 8-0 suture was looped under the left anterior descending coronary artery 1-3 mm from the tip of the normally positioned left atrium. Ischemia was induced by ligation of the suture (a 1 to 2 mm section of PE-10 tubing was placed between the suture and the artery to prevent damage to the vessel). Rectal temperature was continuously measured and maintained at 36.5-37.5° C. Following a 30-min coronary artery occlusion, the suture was removed to allow coronary reperfusion followed by closure of the chest wall. After 24 hours of coronary artery reperfusion the heart was excised and postmortem perfused as previously described (Wang, G., et al. 2005. Am. J. Physiol. Heart Circ. Physiol 288:H1290-H1295). The infarct region was determined by perfusion with a 1% solution of 2,3,5-triphenyltetrazolium chloride (TTC) in phosphate buffer (pH 7.4, 37° C.). To delineate the risk region, the coronary artery was tied at the site of the previous occlusion and the aortic root perfused with a 1% solution of Evans blue dye. Infarct size was measured by planimetry with NIH Image and expressed as a percentage of the area at risk.
Limitation of IFS by pharmacological delayed preconditioning of the heart was induced with the nitric oxide donor diethylenetriamine/nitric oxide (DETA/NO) as previously reported (Wang, G., et al. 2005. Am. J. Physiol. Heart Circ. Physiol 288:H1290-H1295). After dissecting free the left jugular vein in pentobarbital-anesthetized WT mice, DETA/NO was given in 4 boluses 24-hours prior to 30-min coronary artery occlusion (0.1 mg/kg×4, i.v.).

Cdk2 = molecular target: T1, Cdk2 (Mus musculus, UniProt P97377); assay: Cdk2 immune complex kinase assay on ventricular lysates of treated mice (histones H1 as substrate); assay type: in vivo; details: DETA/NO 0.1 mg/kg x 4 i.v. 24 hours before I/R, compared to vehicle-treated hearts
T1 construct: Cdk2 complexes were immunoprecipitated from ventricular lysates from each of the indicated treatment groups; from tissue; host or cells: mouse heart ventricle (C57/BL6 mice, treated in vivo)
Protocol: Complexes were immunoprecipitated from 300 μg of total protein lysates from each of the indicated treatment groups. ^32P-labeling of histones H1 was measured using a standard Cdk2 kinase assay.
Ventricular lysates were probed for the indicated proteins.
Western blotting was performed using the identical protein lysates. Antibodies were purchased from Santa Cruz Biotechnology (Santa Cruz). Protein expression was visualized using horseradish peroxidase-conjugated second antibodies and enhanced chemiluminescence reagents (Amersham Biosciences). Nonsaturated autoradiographs were quantitated with SigmaScan.
Cdk2 complexes were immunoprecipitated from ventricular lysates from each of the indicated treatment groups.

Row | Compound | reduction in infarct size compared to vehicle treated mice (C57/BL6 mice; Roscovitine 2.8 mg/gm i.p. two hours prior to ischemia, 30 min occlusion, 24 h reperfusion, vs DMSO vehicle) | infarct size (IFS % of A@R) (C57/BL6 mice; Roscovitine 2.8 mg/gm intraperitoneally two hours prior to ischemia, 30 min LAD occlusion, 24 h reperfusion, mean ± SEM, P<0.001 vs vehicle (DMSO), n=6 per group) | infarct size (IF % of the A@R) (C57/BL6 mice; DETA/NO 0.1 mg/kg x 4 i.v. 24 hours before 30-min coronary occlusion, wildtype mice, mean ± SEM, P<0.05 vs vehicle, n=4 per group) | reduction in infarct size compared to vehicle treated mice (C57/BL6 mice; DETA/NO 0.1 mg/kg x 4 i.v. 24 hours before I/R injury, vs vehicle) | Cdk2 activity in hearts after 30 minutes of ischemia (Cdk2) | Cdk2 activity in hearts after 30 minutes of ischemia (Cdk2; listed as NO donor)
1 | CC[C@H](CO)Nc1nc(NCc2ccccc2)c2ncn(C(C)C)c2n1 [Roscovitine, 6-Benzylamino-2-(R)-[(1-ethyl)-2-hydroxyethylamino]-9-isopropyl-purine] | 36.7% | 34.2±2.6 IFS % of A@R |  |  |  | 
2 | NCCN(CCN)/[N+]([O-])=N/O [DETA/NO, diethylenetriamine/nitric oxide] |  |  | 35.0±3.7 IF % of the A@R | 32% | decreased Cdk2 activity | blocked the upregulation of Cdk2
